In PubChem BioAssay (NCI):
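48-hour exposure; five concentrations; linearly interpolated endpoints. At the TGI there is no net growth.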

Key:
Experiment in all cases: NCI anticancer screen, dose series, 48 h
SNB-75 CNS = system: SNB-75 CNS
SF-295 CNS = system: SF-295 CNS
SK-OV-3 ovarian = system: SK-OV-3 ovarian
A498 renal = system: A498 renal
SK-MEL-2 melanoma = system: SK-MEL-2 melanoma
COLO 205 colon = system: COLO 205 colon
LOX IMVI melanoma = system: LOX IMVI melanoma
MCF7 breast = system: MCF7 breast
RXF 393 renal = system: RXF 393 renal
SF-268 CNS = system: SF-268 CNS
SR leukemia = system: SR leukemia
786-0 renal = system: 786-0 renal
TK-10 renal = system: TK-10 renal
HT29 colon = system: HT29 colon
MALME-3M melanoma = system: MALME-3M melanoma
UACC-257 melanoma = system: UACC-257 melanoma
HCT-116 colon = system: HCT-116 colon
NCI-H460 lung = system: NCI-H460 lung
HOP-62 NSCLC = system: HOP-62 NSCLC

Structure (SMILES)	TGI (SNB-75 CNS)	TGI (SF-295 CNS)	TGI (SK-OV-3 ovarian)	TGI (A498 renal)	TGI (SK-MEL-2 melanoma)	TGI (COLO 205 colon)	TGI (LOX IMVI melanoma)	TGI (MCF7 breast)	TGI (RXF 393 renal)	TGI (SF-268 CNS)	TGI (SR leukemia)	TGI (786-0 renal)	TGI (TK-10 renal)	TGI (HT29 colon)	TGI (MALME-3M melanoma)	TGI (UACC-257 melanoma)	TGI (HCT-116 colon)	TGI (NCI-H460 lung)	TGI (HOP-62 NSCLC)
O=C1/C(=c2\s/c(=C\c3ccccc3)c(=O)n2-c2ccccc2)SC(=S)N1c1ccccc1	> 100 µM	> 100 µM	52.1 µM	> 100 µM	> 100 µM	> 100 µM	> 100 µM	> 100 µM	> 100 µM	> 100 µM	> 100 µM	> 100 µM	> 100 µM	> 100 µM	> 100 µM	> 100 µM	> 100 µM	> 100 µM	
O=C1Nc2ccccc2C1=Nc1cccc2ncccc12	> 100 µM	> 100 µM	99.7 µM	> 100 µM	> 100 µM	> 100 µM	> 100 µM	> 100 µM	> 100 µM	> 100 µM	> 100 µM	> 100 µM	> 100 µM	> 100 µM	> 100 µM	> 100 µM	> 100 µM	> 100 µM	> 100 µM
O=C1C(N2CCN(c3ccccn3)CC2)=C(Cl)C(=O)c2ncccc21	> 10 µM	> 10 µM	> 10 µM	> 10 µM	4.67 µM	3.49 µM	5.35 µM	3.64 µM	3.56 µM	> 10 µM	> 6.21 µM	3.21 µM	> 6.41 µM	> 6.16 µM	2.75 µM	> 5.88 µM	3.13 µM	> 10 µM	> 10 µM
C/C(=C(/C)c1ccc(O)cc1)c1ccc(O)cc1	> 100 µM		> 100 µM	> 100 µM	> 100 µM	> 100 µM		> 100 µM	> 100 µM	> 100 µM	83.8 µM	> 100 µM	> 100 µM	> 100 µM	> 100 µM	> 100 µM	> 100 µM	> 100 µM	> 100 µM
O=C(O)Cc1c(-c2ccc([N+](=O)[O-])cc2)c(=O)oc2cc(O)ccc12		49.9 µM	90 µM	70.2 µM	50.7 µM	> 100 µM	> 100 µM	75.7 µM	> 100 µM	> 100 µM	> 100 µM	> 100 µM	> 100 µM	> 100 µM	59.9 µM	53.5 µM	73.6 µM	> 100 µM	
COc1cc(C2=C(c3cc(OC)c4ccccc4c3OC)C(=O)c3ccccc3C2=O)c(OC)c2ccccc12	> 100 µM	> 100 µM	> 100 µM	> 100 µM	> 100 µM	> 100 µM	> 100 µM	> 100 µM	> 100 µM	> 100 µM	> 100 µM	> 100 µM	> 100 µM	> 100 µM	> 100 µM	> 100 µM	> 100 µM	> 100 µM	> 100 µM
C[C@@]1(O)C[C@@H](N2C(=O)O[C@@H](c3ccccc3)[C@H]2c2ccccc2)[C@@H]1COCc1ccccc1		41.3 µM		52.9 µM	27.5 µM	36.4 µM	32.9 µM	> 100 µM	80.2 µM	48.1 µM	52.7 µM	48.9 µM	99.7 µM	50.6 µM	46.8 µM	36.7 µM	47.4 µM	68.1 µM	75.3 µM
CN(C)CCCNC(=O)c1c(O)c2ccccc2[nH]c1=O	> 100 µM	> 100 µM	> 100 µM	> 100 µM	> 100 µM	> 100 µM	> 100 µM	> 100 µM	> 100 µM	> 100 µM	> 100 µM	> 100 µM	> 100 µM	> 100 µM	> 100 µM	> 100 µM	> 100 µM	> 100 µM	> 100 µM
O=C(O)c1n[nH][nH]c1=S	> 100 µM	> 100 µM	> 100 µM	> 100 µM	> 100 µM	> 100 µM	> 100 µM	> 100 µM	> 100 µM	> 100 µM	> 100 µM	> 100 µM		> 100 µM	> 100 µM	> 100 µM	> 100 µM	> 100 µM	> 100 µM
S=c1nc(N2CCCCC2)c2cn[nH]c2[nH]1	> 100 µM	> 100 µM		> 100 µM	74.8 µM	> 100 µM	> 100 µM	> 100 µM	> 100 µM	> 100 µM	40.7 µM	> 100 µM	> 100 µM	> 100 µM	> 100 µM	> 100 µM	> 100 µM	> 100 µM	> 100 µM
Cc1c(C)c(C)c(-n2c(=O)n(C)c(=O)n2-n2c(=O)n(C)c(=O)n2-c2c(C)c(C)c(C)c(C)c2C)c(C)c1C	> 100 µM		> 100 µM	> 100 µM	> 100 µM	> 100 µM	> 100 µM	> 100 µM	> 100 µM	> 100 µM	> 100 µM	> 100 µM	> 100 µM	> 100 µM	> 100 µM	> 100 µM	> 100 µM	> 100 µM	
COc1ccc(OC)c(-c2nc3n(c2/C=C2/C(=O)Nc4ccccc42)CCS3)c1	83 µM	> 100 µM	> 100 µM	> 100 µM	79 µM	> 100 µM	> 100 µM	> 100 µM	81.3 µM	> 100 µM	94.4 µM	> 100 µM	> 100 µM	> 100 µM	> 100 µM	> 100 µM	> 100 µM	> 100 µM	> 100 µM
CCN1CCC(O)(c2ccc(Oc3ccccc3)cc2)C(C(=O)c2ccc(Oc3ccccc3)cc2)C1 (stereo unspecified)	28.9 µM	27.5 µM		30.4 µM	30.1 µM	30 µM	16.9 µM	19.5 µM	53.4 µM	35.6 µM	24.8 µM	18.7 µM	27.3 µM	26.4 µM	34.6 µM	26.3 µM	21.2 µM	13.2 µM	25.3 µM
OC1c2ccccc2CC12Cc1ccccc1C2 (stereo unspecified)	> 100 µM	> 100 µM	> 100 µM	> 100 µM	> 100 µM	> 100 µM	> 100 µM	> 100 µM	> 100 µM	> 100 µM	> 100 µM	> 100 µM	> 100 µM	> 100 µM	> 100 µM	> 100 µM	> 100 µM	> 100 µM	> 100 µM
Cc1cc(-c2cccc3ccccc23)c(C#N)c(=S)n1C1OC(CO)C(O)C(O)C1O (stereo unspecified)	47.5 µM	> 100 µM	> 100 µM	> 100 µM	> 100 µM	> 100 µM	> 100 µM	> 100 µM	> 100 µM		> 100 µM	> 100 µM	> 100 µM	> 100 µM	> 100 µM	> 100 µM	> 100 µM	> 100 µM	> 100 µM
CC1(C)CC(C2=NCCO2)CC(C)(C)N1	> 100 µM	> 100 µM	> 100 µM	> 100 µM	> 100 µM	> 100 µM	> 100 µM	61.1 µM	> 100 µM	> 100 µM	> 100 µM	> 100 µM	> 100 µM	> 100 µM	> 100 µM	> 100 µM	> 100 µM		> 100 µM
N=C(N)C1CN(CCCCCCCCCCN2CC(C(=N)N)C(=O)NC2=O)C(=O)NC1=O (stereo unspecified)	> 10 µM	> 10 µM	> 10 µM	> 10 µM	> 10 µM	> 10 µM	> 10 µM	> 10 µM	> 10 µM		> 10 µM	> 10 µM	> 10 µM	> 10 µM	> 10 µM	> 10 µM	> 10 µM	> 10 µM	> 10 µM
Fc1ccc(C(OCCN2CCN(CCCCl)CC2)c2ccc(F)cc2)cc1		58.1 µM	> 100 µM	46.4 µM	52 µM	32.7 µM	32.9 µM	41.1 µM	44.4 µM	77.5 µM	61.9 µM	94.6 µM	> 100 µM	40 µM	31.8 µM	47.5 µM	46.6 µM	55.5 µM	> 100 µM
COc1c2cc(C(C)(C)C)cc1Cc1cccc(c1OCc1cccc([N+](=O)[O-])c1)Cc1cc(C(C)(C)C)cc(c1OC)Cc1cccc(c1OCc1cccc([N+](=O)[O-])c1)Cc1cc(C(C)(C)C)cc(c1OC)Cc1cccc(c1OCc1cccc([N+](=O)[O-])c1)C2	> 50 µM	> 50 µM		> 50 µM	> 50 µM	> 50 µM		> 50 µM	> 50 µM	> 50 µM	> 50 µM	> 50 µM		> 50 µM	> 50 µM	> 50 µM	> 50 µM	> 50 µM	> 50 µM
CC(CC[C@@H](O)C(C)(C)O)C1[C@@H](O)CC2(C)C3CC(O)C4C(C)(C)[C@@H](OC5OC(CO)C(O)C(O)C5O)CC[C@@]45C[C@@]35CC[C@]12C (stereo partly specified)	> 10 µM	> 10 µM	> 10 µM	> 10 µM	> 10 µM	> 10 µM		> 10 µM	> 10 µM	> 10 µM	> 10 µM	> 10 µM	> 10 µM	> 10 µM	> 10 µM	> 10 µM	> 10 µM	> 10 µM	> 10 µM
N#CC(C#N)=C1c2ccccc2C(=NN)c2ccccc21	> 100 µM	> 100 µM	> 100 µM	> 100 µM	> 100 µM	> 100 µM		> 100 µM	> 100 µM	> 100 µM	> 100 µM	> 100 µM	> 100 µM	> 100 µM	> 100 µM	> 100 µM			> 100 µM
Cc1ccc(C2=Nn3c(nc4sc(C)c(C)c4c3=O)SC2)cc1	> 100 µM	> 100 µM	> 100 µM	> 100 µM		> 100 µM	> 100 µM	> 100 µM	> 100 µM	> 100 µM	> 100 µM	> 100 µM	85.3 µM	> 100 µM	> 100 µM	> 100 µM	> 100 µM	> 100 µM	> 100 µM
COc1cc(C=O)cc(/C=N/n2c3ccccc3c3ccccc32)c1O	15.7 µM	18.6 µM	> 100 µM	48.7 µM		52.1 µM	> 100 µM	42.6 µM	99.7 µM	> 100 µM	> 100 µM	> 100 µM	> 100 µM	> 100 µM	> 100 µM	> 100 µM	> 100 µM	> 100 µM	> 100 µM
O=C(NNC(=S)Nc1ccccc1)c1cc(-c2ccccc2)nc2ccccc12	71.3 µM	27.4 µM	43.2 µM	28 µM	31.9 µM	36.8 µM		60.8 µM	46.4 µM	76.3 µM	32.9 µM	30 µM	> 100 µM	> 100 µM	82.4 µM	60.1 µM	28.5 µM	> 100 µM	33.3 µM
COc1cc(C(=O)/C=C/c2ccc(OCC#N)cc2)cc(OC)c1OC		> 100 µM	> 100 µM	65.9 µM		39.5 µM		23.3 µM	34.1 µM	> 100 µM	55.4 µM	37.9 µM	70.1 µM	> 100 µM	33 µM	> 100 µM	26.9 µM	80.9 µM	58.6 µM
